One data set deals with platelets. Description: Platelet aggregation inhibition in vitro (platelet rich plasma). It is filed as cell-based, normal healthy volunteers (human). How it is done: Plasma was prepared as follows. Blood from 6 normal healthy volunteers was mixed with 3.8% w/v trisodium citrate (9 parts blood: 1 part citrate). The samples were centrifuged at 150 g for 10 minutes and the supernatant platelet rich plasma (PRP) was removed. The platelet concentration in the PRP was adjusted to 300±50×10^9 /1 platelets with autologous platelet poor plasma.
25 μl aliquots of a 40 μg/ml solution of the compound of Example 1 were incubated with 225 μl aliquots of PRP in a Payton Aggregometer for 3 minutes. Control solutions, one matched to the test solution with respect to solution pH and tonicity, and another of 0.9% w/v NaCl were also studied. After 3 minutes 25 μl aliquots of adenosine diphosphate solution at a concentration of 20 μm were added to each solution. The aggregation response was recorded until complete with a maximum of 3 minutes. The procedure was repeated using as different aggregation agents: 100 μg collagen; 100 μm adrenaline or 5 mg/ml arachidonic acid instead of adenosine diphosphate.
The aggregation responses induced by the different aggregation agents were measured for the platelets from each donor. The results were assessed by visual examination of the aggregation tracing produced by the Payton aggregometer and semi-quantitatively assessed by measurement of the light transmission 3 minutes after adding the inducing agent.
Serial dilutions of this compound were prepared and tested for inhibition of adenosine diphosphate induced aggregation.

The test system of another data set is hindquarters blood flow. Description: Vasodilator activity, anaesthetised rat hindquarters autoperfused at constant blood pressure. The data set is classed as in vivo. The text has this: The dose to increase hindquarters blood flow by 50% was 4.6 μmol/Kg.
In data set [1] the test system is left ventricular dp/dt max. Description: Cardiac stimulant activity in vivo, anaesthetised cats (left ventricular dp/dt max). Details: species or system cat; key to Relative Duration: ***: long; **: medium; *: short. The text has this: The dose to increase left ventricular dp/dt max by 50% is given as the ED50.
In the next data set the test system is right ventricular strips. Description: Cardiac stimulant activity in vitro, guinea pig ventricular strips (force of contraction). Conditions: Cavia porcellus, 50% increase in force of contraction; guinea pig ventricular strips; read-out: EC50 × 10^-6 M. The procedure: The compounds of formula (I) and their pharmaceutically acceptable salts are tested for cardiac stimulant activity following a procedure based on that of S. C. Verma and J. H. McNeill (J.Pharm & Exp. Therapeutics, 200, 352-362 (1977)). Guinea pigs (500-700 g) of either sex are sacrificed and the hearts are quickly removed and transferred to a dissecting dish containing oxygenated bathing fluid. While in the bathing medium, the right ventricle is cut into two strips. The strips are each suspended in a 50 ml bath containing Krebs Henseleit solution at 37° C., and the bath is bubbled with 95% oxygen and 5% carbon dioxide. The ventricular strips are electrically stimulated at a frequency of 1.0 Hz, at double the threshold voltage. A resting tension of 1.0 g is applied to the strips and the tension is kept constant by readjustment during an equilibration period of 60 minutes. The bathing fluid is frequently changed during this period. When a steady base line is obtained, a compound under test is added to the bathing fluid and a cumulative concentration response curve is plotted. The compounds for use in the present invention which were tested gave a 50% increase in the force of contraction of the ventricular strips at concentrations in the bathing fluid of less than 10^-4 molar, thus showing that they have activity as positive inotropic agents.

In data set [2] the test system is 2-pyridylethylamine-induced bronchoconstriction. Description: Bronchodilatation in vivo, 2-pyridylethylamine-induced bronchoconstriction. Also noted: species or system guinea-pigs (Dunkin Hartley). The following applies: i.v. bolus one minute before challenge. How it is done:
Male guinea-pigs of the Dunkin Hartley strain (530 g±6 g) were anaesthetised with Sagatal (pentobarbital sodium) (90 mg/kg i.p.). Airway resistance was measured using a modification of the classical Konzett-Rossler technique (Versuchsanordnung zu Untersuchungen an der Bronchialmuskulatur. Naunyn-Schmiedebergs Arch. Exp. Path. Pharmak., 30: pp 121-145, (1940)). A dose of 2-pyridylethylamine which gave approximately 100% increase in airway resistance was selected for i.v. administration. Bolus doses of the compound of Example 1 were administered (i.v.) one minute before the 2-pyridylethylamine challenge.

For data set [3], the system named is left ventricular dp/dt max. Description: Cardiac stimulant activity in vivo, conscious dogs (left ventricular dp/dt max). Details: species or system dog. Conditions: for minimal effective dose: Canis lupus familiaris. How it is done:
Oral administration caused positive inotropic responses at doses of 0.25 mg/kg and below. […] Therefore this compound is particularly beneficial with regard to `force-rate` selectivity.

Where [4] appears, read: i.v., anaesthetised rat hindquarters.

Read-outs that look alike come from different tables or passages of the source.

Take `CNC(=NC#N)Nc1ccc(C2=NNC(=O)CC2C)cc1` (stereo not drawn) [Example 1, 6-[4-(N^3 -Methyl-N^2-cyanoguanidino)phenyl]-5-methyl-4,5-dihydro-3(2H)-pyridazinone]: the IC100 with platelets (Homo sapiens, Platelet, adenosine diphosphate induced aggregation, serial dilutions, read-out: concentration completely inhibiting second wave aggregation) is no less than 0.5 µg/mL. Besides, the “inhibition of platelet aggregation induced by adenosine diphosphate” value with platelets (final concentrations of 5 μg/ml, adenosine diphosphate) is listed as “inhibited platelet aggregation”. The “inhibition of platelet aggregation induced by adrenaline” value with platelets (final concentrations of 5 μg/ml, adrenaline) is reported as “inhibited platelet aggregation”. Also, the “inhibition of platelet aggregation induced by arachidonic acid” value with platelets (final concentrations of 5 μg/ml, arachidonic acid) is recorded as “inhibited platelet aggregation”. For the same molecule, the “inhibition of platelet aggregation induced by collagen” value in the data set on platelets (final concentrations of 5 μg/ml, collagen) is “inhibited platelet aggregation”. Further, the ED (50% increase in hindquarters blood flow) in the data set on hindquarters blood flow (Rattus norvegicus, iv, anaesthetised rat, read-out: dose to increase hindquarters blood flow by 50%) worked out at 4.6 µmol/kg. The “dose range of dose-dependent vasodilatation” value in the data set with hindquarters blood flow (setting [4]) lay in the range of 1 to 10 µmol/kg. The duration of activity entry with hindquarters blood flow (setting [4]) is “significant duration of activity”. Moreover, the ED50 in data set [1] (Felis catus, intravenous, dose to increase left ventricular dp/dt max by 50%, anaesthetised cats) came out at 0.2 µmol/kg; in data set [2] (Cavia porcellus, iv, read-out: ED50, dose which reduced the 2-pyridylethylamine bronchoconstriction by 50%), 0.39 µmol/kg. Moreover, the “Relative Duration” value in data set [1] (estimated in anaesthetised cats following i.v. administration) is “***”. The EC50 with right ventricular strips was 1400 nM. Besides, the minimal effective dose is 0.0316 µmol/kg in data set [2] (Cavia porcellus, read-out: threshold dose); less than 0.1 mg/kg in data set [3] (intravenous, read-out: dose increasing left ventricular dp/dt max); no more than 0.25 mg/kg in data set [3] (oral, read-out: dose causing positive inotropic responses). The “effect on 2-pyridylethylamine-induced bronchoconstriction” value in data set [2] is reported as “reduced the 2-pyridylethylamine-induced bronchoconstriction”. The “changes in blood pressure or heart rate” value in data set [3] is recorded as “without changes in blood pressure or heart rate”. In addition, in data set [3] (persisted for up to), the “persistence of positive inotropic responses” value is 9 to 12 h.

The values above are taken from patent publication US4654342A, “6-(cyanoguanidinophenyl)pyridazinones as cardiac stimulants” (Smith Kline & French Laboratories Ltd., priority 1984, dated 1987).
